Tests used:
Assay type in all cases: in vivo
[1] = test system: ivy-leaved morning glory (Ipomoea hederacea); test: Test G Post-Emergence Protocol; conditions: Ipomoea, post-emergence, 312 h, read-out: Morningglory, Ivy-leaved damage rating; for pest or weed control at 15.625 g/ha: 15.625 g ai/ha, evaluated after 13 days (100=total damage to plant; 0=no damage to plant); for pest or weed control at 62.5 g/ha: 62.5 g ai/ha; for pest or weed control at 62.5 g/ha / pest or weed control at 250 g/ha: evaluated after 13 days, 100=total damage to plant, 0=no damage to plant; for pest or weed control at 250 g/ha: 250 g ai/ha
Procedure, shortened: (§1)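 Scores run 0 (no damage) to 100 (total damage) and were taken 13 days after spraying. Plants had been raised in pots for 8 days under glasshouse control (24/16 °C, 14 h photoperiod, 65% humidity) and then treated at 15.625, 62.5 or 250 g/ha.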

[2] = test system: velvetleaf (Abutilon theophrasti); test: Test G Post-Emergence Protocol; conditions: Abutilon theophrasti, post-emergence, 312 h, read-out: Velvetleaf damage rating; for pest or weed control at 15.625 g/ha: 15.625 g ai/ha, evaluated after 13 days (100=total damage to plant; 0=no damage to plant); for pest or weed control at 62.5 g/ha: 62.5 g ai/ha; for pest or weed control at 62.5 g/ha / pest or weed control at 250 g/ha: evaluated after 13 days, 100=total damage to plant, 0=no damage to plant; for pest or weed control at 250 g/ha: 250 g ai/ha
Procedure, shortened: as §1

[3] = test system: giant foxtail (Setaria faberi); test: Test G Post-Emergence Protocol; conditions: Setaria faberi, post-emergence, 312 h, read-out: Foxtail, Giant damage rating; for pest or weed control at 15.625 g/ha: 15.625 g ai/ha, evaluated after 13 days (100=total damage to plant; 0=no damage to plant); for pest or weed control at 62.5 g/ha: 62.5 g ai/ha
Procedure, shortened: as §1

[4] = test system: redroot pigweed (Amaranthus retroflexus); test: Test G Post-Emergence Protocol; conditions: Amaranthus retroflexus, post-emergence, 312 h, read-out: Pigweed, Redroot damage rating; for pest or weed control at 15.625 g/ha: 15.625 g ai/ha, evaluated after 13 days (100=total damage to plant; 0=no damage to plant); for pest or weed control at 62.5 g/ha: 62.5 g ai/ha; for pest or weed control at 62.5 g/ha / pest or weed control at 250 g/ha: evaluated after 13 days, 100=total damage to plant, 0=no damage to plant; for pest or weed control at 250 g/ha: 250 g ai/ha
Procedure, shortened: as §1

[5] = test system: corn (Zea mays); test: Test G Post-Emergence Protocol; conditions: Zea mays, post-emergence, 312 h, read-out: Corn damage rating; for plant injury at 15.625 g/ha: 15.625 g ai/ha, evaluated after 13 days (100=total damage to plant; 0=no damage to plant); for plant injury at 62.5 g/ha: 62.5 g ai/ha; for plant injury at 62.5 g/ha / plant injury at 250 g/ha: evaluated after 13 days, 100=total damage to plant, 0=no damage to plant; for plant injury at 250 g/ha: 250 g ai/ha
Procedure, shortened: as §1

[6] = test system: barnyardgrass (Echinochloa crus-galli); test: Test G Post-Emergence Protocol; conditions: Echinochloa crus-galli, post-emergence, 312 h, read-out: Barnyardgrass damage rating; for pest or weed control at 15.625 g/ha: 15.625 g ai/ha, evaluated after 13 days (100=total damage to plant; 0=no damage to plant); for pest or weed control at 62.5 g/ha: 62.5 g ai/ha; for pest or weed control at 62.5 g/ha / pest or weed control at 250 g/ha: evaluated after 13 days, 100=total damage to plant, 0=no damage to plant; for pest or weed control at 250 g/ha: 250 g ai/ha
Procedure, shortened: as §1

[7] = test system: ivy-leaved morning glory (Ipomoea hederacea); test: Test G Pre-Emergence Protocol; conditions: Ipomoea, pre-emergence, 312 h, evaluated after 13 days; for pest or weed control at 15.625 g/ha: 15.625 g ai/ha; for pest or weed control at 15.625 g/ha / pest or weed control at 250 g/ha: read-out: Morningglory, Ivy-leaved damage rating (100=total damage to plant; 0=no damage to plant); for pest or weed control at 62.5 g/ha: 62.5 g ai/ha, 100=total damage to plant, 0=no damage to plant, read-out: Morningglory, Ivy-leaved damage rating; for pest or weed control at 250 g/ha: 250 g ai/ha
Procedure, shortened: (§2)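 One day after sowing, pots are treated with a spray of test compound formulated in acetone/water 50:50 plus 0.5% Tween 20, giving 15.625, 62.5 or 250 g/ha. Evaluation on a 0–100 damage scale follows 13 days of glasshouse growth.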

[8] = test system: velvetleaf (Abutilon theophrasti); test: Test G Pre-Emergence Protocol; conditions: Abutilon theophrasti, pre-emergence, 312 h, evaluated after 13 days; for pest or weed control at 15.625 g/ha: 15.625 g ai/ha; for pest or weed control at 15.625 g/ha / pest or weed control at 250 g/ha: read-out: Velvetleaf damage rating (100=total damage to plant; 0=no damage to plant); for pest or weed control at 62.5 g/ha: 62.5 g ai/ha, 100=total damage to plant, 0=no damage to plant, read-out: Velvetleaf damage rating; for pest or weed control at 250 g/ha: 250 g ai/ha
Procedure, shortened: as §2

[9] = test system: giant foxtail (Setaria faberi); test: Test G Pre-Emergence Protocol; conditions: Setaria faberi, pre-emergence, 312 h, evaluated after 13 days; for pest or weed control at 15.625 g/ha: 15.625 g ai/ha; for pest or weed control at 15.625 g/ha / pest or weed control at 250 g/ha: read-out: Foxtail, Giant damage rating (100=total damage to plant; 0=no damage to plant); for pest or weed control at 62.5 g/ha: 62.5 g ai/ha, 100=total damage to plant, 0=no damage to plant, read-out: Foxtail, Giant damage rating; for pest or weed control at 250 g/ha: 250 g ai/ha
Procedure, shortened: as §2

[10] = test system: redroot pigweed (Amaranthus retroflexus); test: Test G Pre-Emergence Protocol; conditions: Amaranthus retroflexus, pre-emergence, 312 h, evaluated after 13 days; for pest or weed control at 15.625 g/ha: 15.625 g ai/ha; for pest or weed control at 15.625 g/ha / pest or weed control at 250 g/ha: read-out: Pigweed, Redroot damage rating (100=total damage to plant; 0=no damage to plant); for pest or weed control at 62.5 g/ha: 62.5 g ai/ha, 100=total damage to plant, 0=no damage to plant, read-out: Pigweed, Redroot damage rating; for pest or weed control at 250 g/ha: 250 g ai/ha
Procedure, shortened: as §2

[11] = test system: corn (Zea mays); test: Test G Pre-Emergence Protocol; conditions: Zea mays, pre-emergence, 312 h, evaluated after 13 days; for plant injury at 15.625 g/ha: 15.625 g ai/ha; for plant injury at 15.625 g/ha / plant injury at 250 g/ha: read-out: Corn damage rating (100=total damage to plant; 0=no damage to plant); for plant injury at 62.5 g/ha: 62.5 g ai/ha, 100=total damage to plant, 0=no damage to plant, read-out: Corn damage rating; for plant injury at 250 g/ha: 250 g ai/ha
Procedure, shortened: as §2

[12] = test system: barnyardgrass (Echinochloa crus-galli); test: Test G Pre-Emergence Protocol; conditions: Echinochloa crus-galli, pre-emergence, 312 h, evaluated after 13 days; for pest or weed control at 15.625 g/ha: 15.625 g ai/ha; for pest or weed control at 15.625 g/ha / pest or weed control at 250 g/ha: read-out: Barnyardgrass damage rating (100=total damage to plant; 0=no damage to plant); for pest or weed control at 62.5 g/ha: 62.5 g ai/ha, 100=total damage to plant, 0=no damage to plant, read-out: Barnyardgrass damage rating; for pest or weed control at 250 g/ha: 250 g ai/ha
Procedure, shortened: as §2

[13] = evaluated after 13 days, 100=total damage to plant, 0=no damage to plant

CN1C[C@@H](c2ccc(CO)cc2)[C@H](C(=O)Nc2cccc(F)c2F)C1=O (racemic) [Compound 1820]
0%: pest or weed control at 15.625 g/ha [1] | pest or weed control at 62.5 g/ha [1] | pest or weed control at 250 g/ha [1] | pest or weed control at 15.625 g/ha [2] | pest or weed control at 62.5 g/ha [2] | pest or weed control at 250 g/ha [2] | pest or weed control at 15.625 g/ha [3] | pest or weed control at 62.5 g/ha [3, 13] | pest or weed control at 250 g/ha ([3]; 250 g ai/ha, evaluated after 13 days, 100=total damage to plant, 0=no damage to plant) | pest or weed control at 15.625 g/ha [4] | pest or weed control at 62.5 g/ha [4] | pest or weed control at 250 g/ha [4] | plant injury at 15.625 g/ha [5] | plant injury at 62.5 g/ha [5] | plant injury at 250 g/ha [5] | pest or weed control at 15.625 g/ha [6] | pest or weed control at 62.5 g/ha [6] | pest or weed control at 250 g/ha [6] | pest or weed control at 15.625 g/ha [7] | pest or weed control at 62.5 g/ha [7] | pest or weed control at 250 g/ha [7] | pest or weed control at 15.625 g/ha [8] | pest or weed control at 62.5 g/ha [8] | pest or weed control at 250 g/ha [8] | pest or weed control at 15.625 g/ha [9] | pest or weed control at 62.5 g/ha [9] | pest or weed control at 250 g/ha [9] | pest or weed control at 15.625 g/ha [10] | pest or weed control at 62.5 g/ha [10] | pest or weed control at 250 g/ha [10] | plant injury at 15.625 g/ha [11] | plant injury at 62.5 g/ha [11] | plant injury at 250 g/ha [11] | pest or weed control at 15.625 g/ha [12] | pest or weed control at 62.5 g/ha [12] | pest or weed control at 250 g/ha [12]

COC(=O)c1cc([C@H]2CN(C)C(=O)[C@@H]2C(=O)Nc2ccccc2F)ccc1F (racemic) [Compound 1682]
0%: pest or weed control at 15.625 g/ha [1] | pest or weed control at 62.5 g/ha [1] | pest or weed control at 250 g/ha [1] | pest or weed control at 15.625 g/ha [2] | pest or weed control at 62.5 g/ha [2] | pest or weed control at 250 g/ha [2] | pest or weed control at 15.625 g/ha [3] | pest or weed control at 62.5 g/ha [3, 13] | pest or weed control at 15.625 g/ha [4] | pest or weed control at 62.5 g/ha [4] | pest or weed control at 250 g/ha [4] | plant injury at 15.625 g/ha [5] | plant injury at 62.5 g/ha [5] | plant injury at 250 g/ha [5] | pest or weed control at 15.625 g/ha [6] | pest or weed control at 62.5 g/ha [6] | pest or weed control at 250 g/ha [6] | pest or weed control at 15.625 g/ha [7] | pest or weed control at 62.5 g/ha [7] | pest or weed control at 250 g/ha [7] | pest or weed control at 15.625 g/ha [8] | pest or weed control at 62.5 g/ha [8] | pest or weed control at 250 g/ha [8] | pest or weed control at 15.625 g/ha [9] | pest or weed control at 62.5 g/ha [9] | pest or weed control at 250 g/ha [9] | pest or weed control at 15.625 g/ha [10] | pest or weed control at 62.5 g/ha [10] | pest or weed control at 250 g/ha [10] | plant injury at 15.625 g/ha [11] | plant injury at 62.5 g/ha [11] | plant injury at 250 g/ha [11] | pest or weed control at 15.625 g/ha [12] | pest or weed control at 62.5 g/ha [12] | pest or weed control at 250 g/ha [12]
